Experimental findings from DBAASP are described below.

Test systems include Escherichia coli; Pseudomonas aeruginosa; Staphylococcus aureus; Escherichia coli UB1005.
What all share (test): ≥ marks a high value that may be exact or a test limit, other limits are often not marked, values filed in µg/mL are converted to µM
In experiment [1] the test system is Staphylococcus epidermidis ATCC 12228.
The subject of experiment [2] is Escherichia coli ATCC 25922.
The test system of experiment [3] is Pseudomonas aeruginosa ATCC 27853.
For experiment [4], the system named is Staphylococcus aureus ATCC 29213.
The subject of experiment [5] is Candida albicans ATCC 90028.
For experiment [6], the system named is Staphylococcus aureus ATCC 25923.
For experiment [7], the system named is Pseudomonas aeruginosa PAO1.
Experiment [8] deals with Salmonella typhimurium KCTC 1926.

Molecules are shown by their SMILES. Converted amounts (≈) assume the structure as drawn. “And” between values parts separate entries of the source, which are not always exact repeats. Equal values may be shown once. Some results are limits rather than exact numbers.

As for `CC(C)C[C@H](NC(=O)[C@H](C)NC(=O)[C@H](CC(C)C)NC(=O)[C@@H](N)CCCCN)C(=O)N[C@@H](CCCCN)C(=O)N[C@@H](C)C(=O)N[C@@H](C)C(=O)N[C@@H](C)C(=O)N[C@@H](CCCCN)C(=O)N[C@@H](C)C(=O)N[C@@H](Cc1c[nH]c2ccccc12)C(=O)N[C@@H](CCCCN)C(=O)N[C@@H](C)C(=O)N[C@@H](C)C(=O)N[C@@H](C)C(=O)N[C@@H](CCCCN)C(=O)N[C@@H](C)C(=O)N[C@@H](C)C(N)=O` [KLALKAAAKAWKAAAKAA], the figures for the minimal inhibitory concentration (MIC) in the experiment on Escherichia coli, against Pseudomonas aeruginosa and against Staphylococcus aureus were 91 µM (≈ 162 µg/mL), over 91 µM and over 91 µM, respectively.
`CC[C@H](C)[C@H](NC(=O)CN)C(=O)NCC(=O)N[C@@H](CCCCN)C(=O)N[C@@H](Cc1ccccc1)C(=O)N[C@H](C(=O)N[C@@H](Cc1cnc[nH]1)C(=O)N[C@@H](CO)C(=O)N[C@H](C(=O)N[C@@H](CCCCN)C(=O)N[C@@H](CCCCN)C(=O)N[C@@H](Cc1c[nH]c2ccccc12)C(=O)NCC(=O)N[C@@H](CCCCN)C(=O)N[C@H](C(=O)N[C@@H](Cc1ccccc1)C(=O)N[C@H](C(=O)NCC(=O)N[C@@H](CCC(=O)O)C(=O)N[C@H](C(=O)N[C@@H](CCSC)C(=O)N[C@@H](CC(N)=O)C(=O)N[C@@H](CO)C(N)=O)[C@@H](C)CC)[C@@H](C)CC)[C@@H](C)O)C(C)C)[C@@H](C)CC` [GIGKFIHSVKKWGKTFIGEIMNS]: the MIC (as a rule, the lowest concentration found to suppress growth) against Escherichia coli came to 2.3 µM (≈ 5.93 µg/mL); against Pseudomonas aeruginosa it was 18 µM (≈ 46.4 µg/mL); against Staphylococcus aureus, 18 µM (≈ 46.4 µg/mL).
Compound `CC[C@H](C)[C@H](NC(=O)CNC(=O)[C@H](CC(C)C)NC(=O)[C@@H](NC(=O)[C@@H](N)Cc1ccc(O)cc1)[C@@H](C)O)C(=O)N[C@@H](CCCCN)C(=O)N[C@H](C(=O)N[C@@H](CC(C)C)C(=O)N[C@@H](Cc1c[nH]c2ccccc12)C(=O)N[C@@H](CO)C(=O)N[C@@H](C)C(=O)N[C@@H](Cc1ccc(O)cc1)C(=O)N[C@@H](CCCCN)C(=O)N[C@@H](Cc1cnc[nH]1)C(=O)N[C@@H](CCCN=C(N)N)C(=O)N[C@@H](CCCCN)C(=O)N[C@H](C(=O)N[C@H](C(=O)N[C@@H](CCC(=O)O)C(=O)N[C@@H](CCCCN)C(=O)N[C@@H](CO)C(=O)N[C@@H](Cc1ccccc1)C(=O)N[C@@H](CC(N)=O)C(=O)N[C@@H](CCCCN)C(=O)NCC(=O)N[C@@H](Cc1ccccc1)C(=O)N[C@@H](Cc1ccc(O)cc1)C(=O)N[C@@H](Cc1cnc[nH]1)C(=O)O)[C@@H](C)CC)[C@@H](C)O)[C@@H](C)CC` [YTLGIKILWSAYKHRKTIEKSFNKGFYH] registered a minimum inhibitory concentration (MIC) in experiment [1] of 50 µM (≈ 172 µg/mL). This lies in the double-digit micromolar range.
As to `CC[C@H](C)[C@H](N)C(=O)N[C@@H](Cc1c[nH]c2ccccc12)C(=O)N[C@@H](CCCN=C(N)N)C(=O)N[C@H](C(=O)N[C@@H](Cc1ccccc1)C(=O)N[C@@H](CCCN=C(N)N)C(N)=O)[C@@H](C)CC` [IWRIFR], the MIC in [2] was 128 µM (≈ 114 µg/mL); in experiment [3], 128 µM (≈ 114 µg/mL); in [4] it was 128 µM (≈ 114 µg/mL); in [1], 64 µM (≈ 56.9 µg/mL).
For `CC[C@H](C)[C@H](NC(=O)[C@H](CCCN=C(N)N)NC(=O)[C@H](CCC(N)=O)NC(=O)[C@@H](NC(=O)[C@@H](NC(=O)[C@H](CCCN=C(N)N)NC(=O)[C@@H](N)CCCCN)[C@@H](C)CC)C(C)C)C(=O)N[C@@H](CCCCN)C(=O)N[C@@H](CC(=O)O)C(=O)N[C@@H](Cc1ccccc1)C(=O)N[C@@H](CC(C)C)C(=O)N[C@@H](CCCCN)C(=O)O` [KRIVQRIKDFLK], the MIC was found to be 10 µM (≈ 15.4 µg/mL) in experiment [5], 5 µM (≈ 7.72 µg/mL) in experiment [2], 5 µM (≈ 7.72 µg/mL) in experiment [3] and 10 µM (≈ 15.4 µg/mL) in experiment [4].
`CC[C@H](C)[C@H](NC(=O)CN)C(=O)NCC(=O)N[C@@H](C)C(=O)N[C@H](C(=O)N[C@@H](CC(C)C)C(=O)N[C@@H](CCCCN)C(=O)N[C@H](C(=O)N[C@@H](CC(C)C)C(=O)N[C@H](C(=O)N[C@H](C(=O)NCC(=O)N[C@@H](CC(C)C)C(=O)N1CCC[C@H]1C(=O)N[C@@H](C)C(=O)N[C@@H](CC(C)C)C(=O)N[C@H](C(=O)N[C@@H](CCCCN)C(=O)N[C@@H](CCCN=C(N)N)C(=O)N[C@@H](CCCCN)C(=O)N[C@@H](CCCN=C(N)N)C(=O)N[C@@H](CCC(N)=O)C(=O)N[C@@H](CCC(N)=O)C(=O)O)[C@@H](C)CC)[C@@H](C)O)[C@@H](C)O)C(C)C)C(C)C` [GIGAVLKVLTTGLPALIKRKRQQ]: the MIC is 1.02 µM (≈ 2.5 µg/mL) in experiment [2]; 0.359 µM (≈ 0.884 µg/mL) against Escherichia coli; 2.03 µM (≈ 5 µg/mL) in [3]; 1.44 µM (≈ 3.54 µg/mL) against Pseudomonas aeruginosa; 0.0508 µM (≈ 0.125 µg/mL) in experiment [6].
Take `CC[C@H](C)[C@H](NC(=O)[C@H](CCCN=C(N)N)NC(=O)[C@H](CCCN=C(N)N)NC(=O)[C@@H]1CCCN1C(=O)[C@H](Cc1c[nH]c2ccccc12)NC(=O)[C@H](CCCN=C(N)N)NC(=O)[C@@H]1CCCN1C(=O)[C@H](CCCN=C(N)N)NC(=O)[C@@H]1CCCN1C(=O)[C@H](CC(C)C)NC(=O)[C@H](Cc1ccc(O)cc1)NC(=O)[C@@H]1CCCN1C(=O)[C@@H]1CCCN1C(=O)[C@H](CCCCN)NC(=O)[C@H](CCCN=C(N)N)NC(=O)[C@@H](N)C(C)C)C(=O)N[C@@H](Cc1ccc(O)cc1)C(=O)N[C@@H](CC(N)=O)C(=O)N[C@@H](CCCN=C(N)N)C(N)=O` [VRKPPYLPRPRWPRRIYNR]: the values for the MIC (against Escherichia coli UB1005; in experiment [7]; in experiment [6]) were 0.516 µM (≈ 1.3 µg/mL), 2.24 µM (≈ 5.65 µg/mL) and 0.198 µM (≈ 0.5 µg/mL), respectively.
On to `CC(C)C[C@H](NC(=O)[C@H](CCCCN)NC(=O)[C@H](CC(C)C)NC(=O)[C@H](CC(C)C)NC(=O)[C@H](CCCCN)NC(=O)[C@H](CCCCN)NC(=O)[C@H](Cc1cnc[nH]1)NC(=O)[C@H](CC(C)C)NC(=O)[C@H](CCCCN)NC(=O)[C@H](CC(C)C)NC(=O)[C@H](CC(C)C)NC(=O)[C@H](CCCCN)NC(=O)[C@H](CCCCN)NC(=O)[C@@H](N)CC(C)C)C(=O)N[C@@H](C)C(=O)NCC(=O)O` [LKKLLKLHKKLLKLAG], for which the results for the MIC in experiment [2] and in [4] were 2.5 µM (≈ 4.61 µg/mL) and over 40 µM, respectively.
In the case of `CC[C@H](C)[C@H](N)C(=O)N[C@@H](Cc1c[nH]c2ccccc12)C(=O)N[C@@H](CCCN=C(N)N)C(=O)N[C@H](C(=O)N[C@@H](Cc1ccccc1)C(=O)N[C@@H](CCCN=C(N)N)C(=O)N[C@@H](CCCN=C(N)N)C(=O)N[C@H](C(=O)N[C@@H](Cc1ccccc1)C(=O)N[C@@H](CCCN=C(N)N)C(=O)N[C@H](C(=O)N[C@@H](Cc1ccccc1)C(N)=O)[C@@H](C)CC)[C@@H](C)CC)[C@@H](C)CC` [IWRIFRRIFRIF], the MIC was 4 µM and 8 µM in experiment [2]; 4 µM (≈ 6.89 µg/mL) in [3]; 1 µM (≈ 1.72 µg/mL) in experiment [4]; 2 µM (≈ 3.44 µg/mL) in [1].
Regarding `CC(=O)N[C@@H](CCCCN)C(=O)N[C@@H](CC(C)C)C(=O)N[C@@H](CC(C)C)C(=O)N[C@@H](CCCCN)C(=O)N[C@@H](CC(C)C)C(=O)N1CCC[C@H]1C(=O)N[C@@H](CCCCN)C(=O)N[C@@H](CCCCN)C(=O)N[C@@H](CC(C)C)C(=O)N[C@@H](CC(C)C)C(=O)N[C@@H](CCCCN)C(=O)N[C@@H](CC(C)C)C(=O)N[C@@H](CC(C)C)C(=O)N[C@@H](CCCCN)C(N)=O` [KLLKLPKKLLKLLK], the MIC in [2] and in experiment [4] was over 80 µM throughout.
Regarding `CC[C@H](C)[C@H](NC(=O)[C@H](CCCN=C(N)N)NC(=O)[C@H](CCC(N)=O)NC(=O)[C@H](C)NC(=O)[C@H](C)NC(=O)[C@H](CCCN=C(N)N)NC(=O)[C@@H](N)CCCCN)C(=O)N[C@@H](CCCCN)C(=O)N[C@@H](C)C(=O)N[C@@H](Cc1ccccc1)C(=O)N[C@@H](CC(C)C)C(=O)N[C@@H](CCCN=C(N)N)C(=O)O` [KRAAQRIKAFLR], the MIC in [5] is at least 40 µM; in [2], 2.5 µM (≈ 3.64 µg/mL); in experiment [3], 5 µM (≈ 7.29 µg/mL); in experiment [4], 10 µM (≈ 14.6 µg/mL).
Consider `CC[C@H](C)[C@H](NC(=O)[C@@H](NC(=O)[C@@H](NC(=O)[C@H](CCCN=C(N)N)NC(=O)[C@@H](NC(=O)[C@@H](NC(=O)[C@H](CC(C)C)NC(=O)[C@@H]1CCCN1C(=O)[C@H](Cc1c[nH]c2ccccc12)NC(=O)[C@@H](NC(=O)[C@H](CCCN=C(N)N)NC(=O)[C@H](CCCCN)NC(=O)[C@@H](NC(=O)[C@@H](N)CCCN=C(N)N)C(C)C)C(C)C)C(C)C)[C@@H](C)CC)[C@@H](C)O)C(C)C)C(=O)N[C@@H](C)C(=O)NCC(=O)N[C@@H](Cc1ccc(O)cc1)C(=O)N[C@@H](CC(N)=O)C(=O)N[C@@H](CC(C)C)C(=O)O` [RVKRVWPLVIRTVIAGYNL], for which the MIC in experiment [8] is at least 32 µM.
For `CC[C@H](C)[C@H](NC(=O)[C@H](CCCCN)NC(=O)[C@H](CCCCN)NC(=O)[C@@H](N)CCC(N)=O)C(=O)N[C@@H](CCCN=C(N)N)C(=O)N[C@H](C(=O)N[C@@H](C)C(=O)N[C@@H](CC(C)C)C(=O)N[C@@H](CO)C(=O)N[C@@H](C)C(=O)O)C(C)C` [QKKIRVALSA], the MIC in experiment [2] was 14.4 µM (≈ 16 µg/mL); in experiment [3], 14.4 µM (≈ 16 µg/mL); in [4] it was over 57.5 µM.
As for `CC[C@H](C)[C@H](NC(=O)[C@H](CCCN=C(N)N)NC(=O)[C@H](CCC(N)=O)NC(=O)[C@H](CO)NC(=O)[C@@H](NC(=O)[C@H](CCCN=C(N)N)NC(=O)[C@H](CCCCN)NC(=O)[C@@H](N)Cc1ccccc1)[C@@H](C)CC)C(=O)N[C@@H](CCCCN)C(=O)N[C@@H](CC(=O)O)C(=O)N[C@@H](Cc1ccccc1)C(=O)N[C@@H](CC(C)C)C(=O)N[C@@H](CCCN=C(N)N)C(=O)O` [FKRISQRIKDFLR], the MIC is 5 µM (≈ 8.54 µg/mL) in experiment [2] and over 40 µM in [4].
